The source made the active and inactive calls. The calls are words filed in the database; no cut-off is given here.
Key:
Mus musculus [1] = test: Neurotoxicity in Carworth farms No.1 albino mouse assessed as neurological impairment at 300 mg/kg, ip measured after 0.5 hrs; type: toxicity, organism-based; design: dose 300 mg/kg, route intraperitoneal; conditions: in vivo
Mus musculus [2] = test: Neurotoxicity in Carworth farms No.1 albino mouse assessed as neurological impairment at 100 mg/kg, ip measured after 4 hrs; type: toxicity, organism-based; design: dose 100 mg/kg, route intraperitoneal; conditions: in vivo
Mus musculus [3] = test: Neurotoxicity in Carworth farms No.1 albino mouse assessed as neurological impairment at 100 mg/kg, ip measured after 0.25 hrs; type: toxicity, organism-based; design: dose 100 mg/kg, route intraperitoneal; conditions: in vivo
Mus musculus [4] = test: Neurotoxicity in Carworth farms No.1 albino mouse assessed as neurological impairment at 300 mg/kg, ip measured after 4 hrs; type: toxicity, organism-based; design: dose 300 mg/kg, route intraperitoneal; conditions: in vivo
Mus musculus [5] = test: Neurotoxicity in Carworth farms No.1 albino mouse assessed as neurological impairment at 30 mg/kg, ip measured after 4 hrs; type: toxicity, organism-based; design: dose 30 mg/kg, route intraperitoneal; conditions: in vivo
Mus musculus [6] = test: Neurotoxicity in Carworth farms No.1 albino mouse assessed as neurological impairment at 100 mg/kg, ip measured after 0.5 hrs; type: toxicity, organism-based; design: dose 100 mg/kg, route intraperitoneal; conditions: in vivo
Mus musculus [7] = test: Neurotoxicity in Carworth farms No.1 albino mouse assessed as neurological impairment at 30 mg/kg, ip measured after 0.5 hrs; type: toxicity, organism-based; design: dose 30 mg/kg, route intraperitoneal; conditions: in vivo
Mus musculus [8] = test: Neurotoxicity in Carworth farms No.1 albino mouse assessed as neurological impairment at 100 mg/kg, ip measured after 2 hr; type: toxicity, organism-based; design: dose 100 mg/kg, route intraperitoneal; conditions: in vivo
Mus musculus [9] = test: Neurotoxicity in Carworth farms No.1 albino mouse assessed as neurological impairment at 100 mg/kg, ip measured after 1 hr; type: toxicity, organism-based; design: dose 100 mg/kg, route intraperitoneal; conditions: in vivo
Mus musculus [10] = test: Anticonvulsant activity in ip dosed Carworth farms No.1 albino mouse assessed as protection against 6 Hz electric current-induced seizure measured after 0.25 hrs; type: functional
Mus musculus [11] = species: Mus musculus; test: Anticonvulsant activity in electric shock-induced Carworth farms No.1 albino mouse assessed as time of peak effect; type: functional
Mus musculus [12] = test: Anticonvulsant activity in Carworth farms No.1 albino mouse assessed as protection against maximum electroshock at 100 mg/kg, ip measured after 4 hrs; type: functional, organism-based; design: dose 100 mg/kg
Mus musculus [13] = test: Anticonvulsant activity in Carworth farms No.1 albino mouse assessed as protection against 6 Hz electric current-induced seizure at 100 mg/kg, ip measured after 0.5 hrs; type: functional, organism-based; design: dose 100 mg/kg
Mus musculus [14] = test: Anticonvulsant activity in Carworth farms No.1 albino mouse assessed as protection against 6 Hz electric current-induced seizure at 100 mg/kg, ip measured after 1 hrs; type: functional, organism-based; design: dose 100 mg/kg
Mus musculus [15] = test: Anticonvulsant activity in Carworth farms No.1 albino mouse assessed as protection against subcutaneous metrazole-induced seizures at 30 mg/kg, ip measured after 0.5 hrs; type: functional, organism-based; design: dose 30 mg/kg
Mus musculus [16] = test: Anticonvulsant activity in Carworth farms No.1 albino mouse assessed as protection against maximum electroshock at 100 mg/kg, ip measured after 0.5 hrs; type: functional, organism-based; design: dose 100 mg/kg
Mus musculus [17] = test: Anticonvulsant activity in Carworth farms No.1 albino mouse assessed as protection against maximum electroshock at 30 mg/kg, ip measured after 0.5 hrs; type: functional, organism-based; design: dose 30 mg/kg
Mus musculus [18] = test: Anticonvulsant activity in Carworth farms No.1 albino mouse assessed as protection against maximum electroshock at 300 mg/kg, ip measured after 4 hrs; type: functional, organism-based; design: dose 300 mg/kg
Mus musculus [19] = test: Anticonvulsant activity in Carworth farms No.1 albino mouse assessed as protection against maximum electroshock at 300 mg/kg, ip measured after 0.5 hrs; type: functional, organism-based; design: dose 300 mg/kg
Mus musculus [20] = test: Anticonvulsant activity in Carworth farms No.1 albino mouse assessed as protection against maximum electroshock at 30 mg/kg, ip measured after 4 hrs; type: functional, organism-based; design: dose 30 mg/kg
Mus musculus [21] = test: Anticonvulsant activity in Carworth farms No.1 albino mouse assessed as protection against 6 Hz electric current-induced seizure at 100 mg/kg, ip measured after 0.25 hrs; type: functional, organism-based; design: dose 100 mg/kg
Mus musculus [22] = test: Anticonvulsant activity in Carworth farms No.1 albino mouse assessed as protection against subcutaneous metrazole-induced seizures at 100 mg/kg, ip measured after 0.5 hrs; type: functional, organism-based; design: dose 100 mg/kg
Mus musculus [23] = test: Anticonvulsant activity in Carworth farms No.1 albino mouse assessed as protection against subcutaneous metrazole-induced seizures at 30 mg/kg, ip measured after 4 hrs; type: functional, organism-based; design: dose 30 mg/kg
Mus musculus [24] = test: Anticonvulsant activity in Carworth farms No.1 albino mouse assessed as protection against subcutaneous metrazole-induced seizures at 100 mg/kg, ip measured after 4 hrs; type: functional, organism-based; design: dose 100 mg/kg
Mus musculus [25] = test: Anticonvulsant activity in Carworth farms No.1 albino mouse assessed as protection against 6 Hz electric current-induced seizure at 100 mg/kg, ip measured after 2 hrs; type: functional, organism-based; design: dose 100 mg/kg
Mus musculus [26] = test: Anticonvulsant activity in Carworth farms No.1 albino mouse assessed as protection against subcutaneous metrazole-induced seizures at 300 mg/kg, ip measured after 0.5 hrs; type: functional, organism-based; design: dose 300 mg/kg
Mus musculus [27] = test: Anticonvulsant activity in Carworth farms No.1 albino mouse assessed as protection against 6 Hz electric current-induced seizure at 100 mg/kg, ip measured after 4 hrs; type: functional, organism-based; design: dose 100 mg/kg
Mus musculus [28] = test: Anticonvulsant activity in Carworth farms No.1 albino mouse assessed as protection against subcutaneous metrazole-induced seizures at 300 mg/kg, ip measured after 4 hrs; type: functional, organism-based; design: dose 300 mg/kg

SMILES | Activity (Mus musculus [1]) | Activity (Mus musculus [2]) | Activity (Mus musculus [3]) | Activity (Mus musculus [4]) | Activity (Mus musculus [5]) | Activity (Mus musculus [6]) | Activity (Mus musculus [7]) | Activity (Mus musculus [8]) | Activity (Mus musculus [9]) | Activity (Mus musculus [12]) | Activity (Mus musculus [15]) | Activity (Mus musculus [16]) | Activity (Mus musculus [17]) | Activity (Mus musculus [18]) | Activity (Mus musculus [19]) | Activity (Mus musculus [20]) | Activity (Mus musculus [22]) | Activity (Mus musculus [23]) | Activity (Mus musculus [24]) | Activity (Mus musculus [26]) | other results
O=C1[C@H]2CCCCN2[C@H](c2ccccc2)C(=O)N1CCc1ccccc1 [listing 1 of 2 here] | Non-toxic | Non-toxic | Non-toxic | Non-toxic | Non-toxic | Non-toxic | Non-toxic | Non-toxic | Non-toxic | – | – | – | – | – | – | – | – | – | – | – | –
Cl.O=C1[C@H]2CCCCN2[C@H](c2ccccc2)C(=O)N1CCc1ccccc1 | Non-toxic | Non-toxic | Non-toxic | Non-toxic | Non-toxic | Non-toxic | Non-toxic | Non-toxic | Non-toxic | – | – | – | – | – | – | – | – | – | – | – | ED50 (Mus musculus [10]): 78.5 mg/kg; Time (Mus musculus [11]): 0.25 h
Cl.O=C1[C@H](c2ccccc2)N2CCCC[C@H]2C(=O)N1CCc1ccccc1 | Non-toxic | Non-toxic | Non-toxic | Non-toxic | Non-toxic | Non-toxic | Non-toxic | Non-toxic | Non-toxic | – | – | – | – | – | – | – | – | – | – | – | –
O=C1[C@H]2CCCCN2[C@@H](c2ccccc2)C(=O)N1Cc1ccccc1 | Non-toxic | Non-toxic | Non-toxic | Non-toxic | Non-toxic | Non-toxic | Non-toxic | Non-toxic | Non-toxic | inactive | inactive | inactive | inactive | inactive | inactive | inactive | inactive | inactive | inactive | inactive | Activity (Mus musculus [13]): inactive; Activity (Mus musculus [14]): inactive; Activity (Mus musculus [21]): inactive; Activity (Mus musculus [25]): inactive; Activity (Mus musculus [27]): inactive; Activity (Mus musculus [28]): inactive
O=C1NC(=O)[C@@H](c2ccccc2)N2CCCC[C@@H]12 | Non-toxic | Non-toxic | Non-toxic | Non-toxic | Non-toxic | Non-toxic | Non-toxic | Non-toxic | Non-toxic | inactive | inactive | inactive | inactive | inactive | inactive | inactive | inactive | inactive | inactive | inactive | Activity (Mus musculus [13]): inactive; Activity (Mus musculus [14]): inactive; Activity (Mus musculus [21]): inactive; Activity (Mus musculus [25]): inactive; Activity (Mus musculus [27]): inactive; Activity (Mus musculus [28]): inactive
O=C1CN2CCCC[C@@H]2C(=O)N1 | Non-toxic | Non-toxic | Non-toxic | Non-toxic | Non-toxic | Non-toxic | Non-toxic | Non-toxic | Non-toxic | inactive | inactive | inactive | inactive | inactive | inactive | inactive | inactive | inactive | inactive | inactive | Activity (Mus musculus [13]): Active; Activity (Mus musculus [14]): Active; Activity (Mus musculus [21]): inactive; Activity (Mus musculus [25]): inactive; Activity (Mus musculus [27]): inactive; Activity (Mus musculus [28]): inactive
O=C1[C@H]2CCCCN2[C@H](c2ccccc2)C(=O)N1CCc1ccccc1 [listing 2 of 2 here] | – | – | – | – | – | – | – | – | – | inactive | inactive | inactive | inactive | inactive | inactive | inactive | inactive | inactive | inactive | inactive | Activity (Mus musculus [27]): inactive; Activity (Mus musculus [28]): inactive
O=C1[C@H](c2ccccc2)N2CCCC[C@H]2C(=O)N1CCc1ccccc1 [listing 1 of 2 here] | Non-toxic | Non-toxic | – | Non-toxic | Non-toxic | Non-toxic | Non-toxic | – | – | – | – | – | – | – | – | – | – | – | – | – | –
Cl.O=C1[C@H]2CCCCN2[C@H](c2ccccc2)C(=O)N1Cc1ccccc1 | Toxic | Non-toxic | – | Non-toxic | Non-toxic | Non-toxic | Non-toxic | – | – | inactive | inactive | inactive | inactive | Active | Active | inactive | inactive | inactive | inactive | inactive | Activity (Mus musculus [28]): inactive
CC[C@@H](C(N)=O)N1CCCC1=O [LEVETIRACETAM] | – | – | – | – | – | – | – | – | – | – | – | – | – | – | – | – | – | – | – | – | Time (Mus musculus [11]): 1 h
O=C1CN2CCCC[C@H]2C(=O)N1 | Non-toxic | Non-toxic | Non-toxic | Non-toxic | Non-toxic | Non-toxic | Non-toxic | Non-toxic | Non-toxic | inactive | inactive | inactive | inactive | inactive | inactive | inactive | inactive | inactive | inactive | inactive | Activity (Mus musculus [13]): inactive; Activity (Mus musculus [14]): Active; Activity (Mus musculus [21]): Active; Activity (Mus musculus [25]): inactive; Activity (Mus musculus [27]): inactive; Activity (Mus musculus [28]): inactive
O=C1[C@H](c2ccccc2)N2CCCC[C@H]2C(=O)N1CCc1ccccc1 [listing 2 of 2 here] | – | – | – | – | – | – | – | – | – | inactive | inactive | inactive | inactive | inactive | inactive | inactive | inactive | inactive | inactive | inactive | Activity (Mus musculus [13]): Active; Activity (Mus musculus [14]): inactive; Activity (Mus musculus [21]): Active; Activity (Mus musculus [25]): inactive; Activity (Mus musculus [27]): inactive; Activity (Mus musculus [28]): inactive
